Test results published in ChEMBL document CHEMBL1152978 (J Med Chem, 2009).

How the values were obtained:
[1] = biological target: T1, Muscarinic acetylcholine receptor M1 (Homo sapiens, UniProt P11229); experiment: Displacement of [3H]NMS from human muscarinic M1 receptor expressed in CHOK1 cells by microplate scintillation counting; type: cell-based, CHO-K1
T1 sequence (P11229 whole entry): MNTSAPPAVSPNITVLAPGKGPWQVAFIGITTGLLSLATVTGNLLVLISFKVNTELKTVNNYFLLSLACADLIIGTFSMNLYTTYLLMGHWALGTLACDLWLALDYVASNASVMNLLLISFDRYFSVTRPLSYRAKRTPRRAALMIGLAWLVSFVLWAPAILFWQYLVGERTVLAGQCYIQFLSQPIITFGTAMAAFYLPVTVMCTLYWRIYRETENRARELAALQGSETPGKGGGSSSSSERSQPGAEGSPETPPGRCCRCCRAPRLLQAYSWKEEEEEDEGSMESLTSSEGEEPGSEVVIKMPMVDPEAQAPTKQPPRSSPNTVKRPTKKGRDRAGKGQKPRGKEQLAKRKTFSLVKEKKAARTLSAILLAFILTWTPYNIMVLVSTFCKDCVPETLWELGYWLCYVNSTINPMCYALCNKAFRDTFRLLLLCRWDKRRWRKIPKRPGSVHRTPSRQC

Mus musculus [2] = experiment: Toxicity in Swiss mouse assessed as neurobiological state and occurrence of xerostomia at 30 mg/kg, ip up to 24 hrs; type: organism-based; parameters: dose 30 mg/kg, route intraperitoneal; details: in vivo
[3] = biological target: T2, Muscarinic acetylcholine receptor M3 (Homo sapiens, UniProt P20309); experiment: Displacement of [3H]NMS from human muscarinic M3 receptor expressed in CHOK1 cells by microplate scintillation counting; type: cell-based, CHO-K1
Cavia porcellus [4] = experiment: Inhibition of acetylcholine-induced bronchoconstriction in Dunkin-Hartley guinea pig assessed as time taken to recover 50% of maximum inhibitory effect at 1 mg/mL administered as nebulized solution; type: functional
[5] = biological target: T3, Muscarinic acetylcholine receptor M2 (Homo sapiens, UniProt P08172); experiment: Displacement of [3H]NMS from human muscarinic M2 receptor expressed in CHOK1 cells by microplate scintillation counting; type: cell-based, CHO-K1
T3 sequence (P08172 whole entry): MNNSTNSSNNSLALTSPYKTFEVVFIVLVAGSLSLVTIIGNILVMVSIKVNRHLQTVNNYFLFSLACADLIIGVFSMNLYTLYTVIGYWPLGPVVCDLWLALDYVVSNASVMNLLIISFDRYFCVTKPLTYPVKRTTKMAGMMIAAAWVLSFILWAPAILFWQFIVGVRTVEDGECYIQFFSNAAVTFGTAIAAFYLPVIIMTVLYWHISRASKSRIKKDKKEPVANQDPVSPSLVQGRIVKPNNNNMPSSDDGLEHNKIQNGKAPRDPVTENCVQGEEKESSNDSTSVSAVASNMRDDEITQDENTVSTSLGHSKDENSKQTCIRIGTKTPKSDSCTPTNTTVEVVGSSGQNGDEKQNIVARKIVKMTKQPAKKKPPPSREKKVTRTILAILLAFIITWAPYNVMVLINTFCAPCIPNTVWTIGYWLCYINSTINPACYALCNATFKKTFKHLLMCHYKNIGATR

Cavia porcellus [6] = experiment: Inhibition of acetylcholine-induced bronchoconstriction in Dunkin-Hartley guinea pig assessed as time taken to recover 50% of maximum inhibitory effect at 3 mg/mL administered as nebulized solution; type: functional
Cavia porcellus [7] = experiment: Inhibition of acetylcholine-induced bronchoconstriction in Dunkin-Hartley guinea pig administered as nebulized solution; type: functional, organism-based
[8] = biological target: T1, Muscarinic acetylcholine receptor M1; experiment: Binding affinity to muscarinic M1 receptor
Cavia porcellus [9] = experiment: Inhibition of acetylcholine-induced bronchoconstriction in Dunkin-Hartley guinea pig assessed as time taken to recover 50% of maximum inhibitory effect at 1 mg/mL administered as nebulized solution
[10] = Metabolic stability in human plasma assessed as elimination half life at pH 7.4; type: ADME, cell-free; details: read-out: beta t1/2
[11] = Chemical stability assessed as half life at pH 7.4 by UV-HPLC analysis; type: physicochemical; details: buffer
Mus musculus [12] = experiment: Toxicity in Swiss mouse assessed as occurrence of mydriasis at 30 mg/kg, ip up to 24 hrs; type: organism-based; parameters: dose 30 mg/kg, route intraperitoneal; details: in vivo
[13] = biological target: T3, Muscarinic acetylcholine receptor M2; experiment: Binding affinity to muscarinic M2 receptor
[14] = biological target: T2, Muscarinic acetylcholine receptor M3
Description: Binding affinity to muscarinic M3 receptor

T2 sequence (P20309 whole entry): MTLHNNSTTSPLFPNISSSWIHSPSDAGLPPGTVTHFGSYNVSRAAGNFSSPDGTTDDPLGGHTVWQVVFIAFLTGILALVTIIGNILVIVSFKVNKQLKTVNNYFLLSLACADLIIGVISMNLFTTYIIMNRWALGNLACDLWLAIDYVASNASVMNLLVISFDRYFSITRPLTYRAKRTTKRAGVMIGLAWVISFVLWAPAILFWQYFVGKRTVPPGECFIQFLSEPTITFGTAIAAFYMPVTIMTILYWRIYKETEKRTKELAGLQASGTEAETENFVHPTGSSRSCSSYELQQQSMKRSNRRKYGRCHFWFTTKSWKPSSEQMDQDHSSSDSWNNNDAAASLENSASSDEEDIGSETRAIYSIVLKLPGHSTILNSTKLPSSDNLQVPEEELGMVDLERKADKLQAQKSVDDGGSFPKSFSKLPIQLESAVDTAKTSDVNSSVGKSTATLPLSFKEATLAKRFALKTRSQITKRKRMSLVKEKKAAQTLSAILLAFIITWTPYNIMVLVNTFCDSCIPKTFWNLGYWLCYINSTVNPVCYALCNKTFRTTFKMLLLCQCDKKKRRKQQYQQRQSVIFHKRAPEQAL

Row | Structure (SMILES) | IC50 [1] | Activity (Mus musculus [2]) | IC50 [3] | Time (Cavia porcellus [4]) | IC50 [5] | also measured
1 | O=C(O[C@H]1C[N+]2(CCc3ccccc3)CCC1CC2)C1(O)c2ccccc2-c2ccccc21.[Br-] | 1.12 nM | Non-toxic | 1.04 nM | >6 h | 2.24 nM | 
2 | CC(C(=O)O[C@H]1C[N+]2(CCCOc3ccccc3)CCC1CC2)(c1cccs1)c1cccs1.[Br-] | 0.6 nM | Non-toxic | 0.59 nM |  | 0.73 nM | 
3 | O=C(O[C@H]1C[N+]2(CCCOc3ccccc3)CCC1CC2)C(O)(c1ccccc1)c1ccccc1.[Br-] | 0.31 nM | Non-toxic |  |  |  | Time (Cavia porcellus [6]): >6 h
4 | O=C(O[C@H]1C[N+]2(CCCOc3ccccc3)CCC1CC2)C(O)(c1cccs1)c1cccs1.[Br-] [ACLIDINIUM BROMIDE] | 0.14 nM | Non-toxic |  | >6 h |  | IC50 (Cavia porcellus [7]): 140 mg/L; Ki [8]: 0.08 nM; Time (Cavia porcellus [9]): >6 h; half-life [10]: 0.0367 h; half-life [11]: 1 h; Activity (Mus musculus [12]): Non-toxic
5 | CC(C)[N+]1(C)C2CCC1CC(OC(=O)C(CO)c1ccccc1)C2.O.[Br-] (stereo unspecified) |  |  |  |  |  | Activity (Mus musculus [12]): Toxic
6 | CC1(C(=O)O[C@H]2C[N+]3(CCCOc4ccccc4)CCC2CC3)c2ccccc2-c2ccccc21.[Br-] | 1.26 nM | Non-toxic | 0.96 nM |  | 2.1 nM | 
7 | O=C(O[C@H]1C[N+]2(CCCOc3ccccc3)CCC1CC2)C1(O)c2ccccc2Oc2ccccc21.[Br-] | 0.23 nM | Non-toxic | 1.04 nM | >6 h | 0.36 nM | 
8 | O=C(O[C@H]1C[N+]2(CCCOc3ccccc3)CCC1CC2)[C@](O)(c1cccs1)C1CCCC1.[Br-] | 0.15 nM | Non-toxic | 0.18 nM | >6 h | 0.14 nM | Ki [13]: 0.06 nM; Time (Cavia porcellus [6]): >6 h; Ki [8]: 0.09 nM; Ki [14]: 0.07 nM; half-life [10]: > 1 h; half-life [11]: > 1 h; Activity (Mus musculus [12]): Toxic
9 | CC1(C(=O)O[C@H]2C[N+]3(CCCOc4ccccc4)CCC2CC3)c2ccccc2Oc2ccccc21.[Br-] | 0.28 nM | Non-toxic |  |  | 0.27 nM | 
10 | O=C(O[C@H]1C[N+]2(CCCOc3ccccc3)CCC1CC2)[C@@](O)(c1ccccc1)c1cccs1.[Br-] | 0.16 nM | Non-toxic | 0.25 nM |  | 0.17 nM | 
11 | O=C(O[C@H]1C[N+]2(CCCCc3ccccc3)CCC1CC2)C(O)(c1cccs1)c1cccs1.[Br-] | 0.29 nM | Non-toxic | 0.45 nM | 6 h | 0.38 nM | Time (Cavia porcellus [6]): 6 h
12 | O=C(O[C@H]1C[N+]2(CCCOc3ccccc3)CCC1CC2)C1(O)c2ccccc2-c2ccccc21.[Br-] | 0.63 nM | Non-toxic | 0.71 nM |  | 1.08 nM | Time (Cavia porcellus [6]): >6 h
13 | O=C(O[C@H]1C[N+]2(CCc3ccccc3)CCC1CC2)C1(O)c2ccccc2Oc2ccccc21.[Br-] | 0.29 nM | Non-toxic | 0.28 nM | >6 h | 0.54 nM | 
14 | O=C(O[C@H]1C[N+]2(CCCOc3ccccc3)CCC1CC2)C(O)(c1ccsc1)c1ccsc1.[Br-] | 0.23 nM | Non-toxic | 0.24 nM |  | 0.18 nM | 
15 | O=C(O[C@H]1C[N+]2(CCCOc3ccccc3)CCC1CC2)[C@](O)(c1ccccc1)c1cccs1.[Br-] | 0.38 nM | Non-toxic | 0.48 nM |  | 0.31 nM | 
16 | O=C(O[C@H]1C[N+]2(CCc3ccccc3)CCC1CC2)C1c2ccccc2Oc2ccccc21.[Br-] | 0.44 nM | Non-toxic | 0.31 nM | >6 h | 1.82 nM | 
17 | O=C(O[C@H]1C[N+]2(CCCOc3ccccc3)CCC1CC2)C(c1cccs1)c1cccs1.[Br-] | 0.34 nM | Non-toxic | 0.37 nM |  | 0.35 nM | 
18 | O=C(O[C@H]1C[N+]2(CCCOc3ccccc3)CCC1CC2)[C@@](O)(c1cccs1)C1CCCC1.[Br-] | 0.81 nM | Non-toxic | 1.62 nM |  | 1.01 nM | Time (Cavia porcellus [6]): >6 h
19 | C[N+]1(C)[C@@H]2C[C@@H](OC(=O)C(O)(c3cccs3)c3cccs3)C[C@H]1[C@@H]1O[C@@H]12.O.[Br-] [TIOTROPIUM BROMIDE] |  |  |  | >6 h |  | IC50 (Cavia porcellus [7]): 45 mg/L; Activity (Mus musculus [12]): Toxic
